{"source": "patent US20260232611A1", "about": "“USE OF (S)-3-AMINO-4-(DIFLUOROMETHYLENYL) CYCLOPENT-1-ENE-1-CARBOXYLIC ACID IN THE TREATMENT OF RHEUMATOID ARTHRITIS” (Ovid Therapeutics Inc., priority 2023, published 2026)", "origin": "cited, not measured here", "key": {"[1]": {"system": "alanine aminotransferase (Ala-AT)", "conditions": "unlike vigabatrin"}, "[2]": {"system": "aspartate aminotransferase (Asp-AT)", "conditions": "unlike vigabatrin"}}, "data": [{"compound": "N[C@H]1C[C@@H](C(=O)O)CC1=C(F)F", "note": "[CPP-115, (1S,3S)-3-amino+difluoromethylenyl-1-cyclopentanoic acid]", "values": [{"measurement": "inactivation or inhibition of off-target enzyme", "setting": "[1]", "value": "not to inactivate or inhibit"}, {"measurement": "inactivation or inhibition of off-target enzyme", "setting": "[2]", "value": "not to inactivate or inhibit"}]}]}
